From US12576044B2, “Treatment of Alzheimer's disease” (priority 2015, dated 2026)
Read-outs that look alike come from different tables or passages of the source.

Experiments:
beta-amyloid fibrils = conditions: cited from earlier work
[1] = biological target: beta-amyloid (1-42) oligomers (Homo sapiens, UniProt P05067); assay: Thioflavin-T (ThT) assay, de-aggregation of pre-aggregated beta-amyloid; type: biochemical; conditions: for reduced aggregation of pre-aggregated beta-amyloid (1-42): over 8 days, 37° C.; for de-aggregation activity (words): 0.1, 1.0, 10 μM, 2 hours, 3 days, 8 days
beta-amyloid (1-42) oligomers, sequence (P05067 672-713 limits assumed): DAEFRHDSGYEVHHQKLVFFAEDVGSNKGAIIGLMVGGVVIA
Text: (§1) (A) De-aggregation activity of curcumin (C). […] (B) Aggregate-prevention activity of resveratrol (R), quercetin (Q), and curcumin (C).
(§2) The formation of beta-amyloid plaques in the brain is a major hallmark of Alzheimer's disease and is widely considered to be a key initial step in the disease progression. The aim of clinical trials for Alzheimer's disease has historically been to deaggregate or prevent the aggregation of beta-amyloid. Plaques are formed by aggregation of soluble monomeric beta-amyloid into insoluble oligomers, protofibrils, fibrils, and plaques. […] The most common method to evaluate beta-amyloid aggregation is the thioflavin-T (ThT) assay. ThT is a fluorescent probe that binds to beta-amyloid fibrils with specificity and is measurable at 482 nm when excited at 450 nm.
(§3) Curcumin (C) was evaluated at 0.1, 1.0, and 10 μM.

beta-amyloid oligomers = conditions: cited from earlier work
[2] = tested on: superactivated platelets (SAPs); assay: In vitro synergy analysis: SAP formation with and without R, Q, C combinations, flow cytometry, Combination Index (Chou-Talalay); type: cell-based, human
Method: The “effective amount” or “therapeutically effective amount” also may be determined by using methods known in the art such as the in vitro flow cytometry assay to evaluate the effectiveness of multiple RQC combinations on platelet activation. All possible combinations of pre-defined “low”, “medium”, and “high” doses of R, Q, and C, respectively, are tested to determine the optimal dose combination. […] A venipuncture sample of 10 mL of blood is obtained from each patient. Of the 10 mL, a 3 mL aliquot of blood is added to a tube containing 0.5 mL of acid-citrate-dextrose solution (38 mM citric acid, 75 mM sodium citrate, 135 mM glucose) to prevent clotting. […] The PRP is transferred to a new tube, leaving about 0.5 mL above the buffy coat layer. […] Platelets are then treated with biotinylated fibrinogen and stained with the following fluorophores: APC-streptavidin (APC-SA), FITC-PAC1, and PE-anti-CD41. PE-anti-CD41 recognizes the platelet-specific, transmembrane protein CD41. FITC-PAC1 identifies activated platelets by recognizing […] which increases its expression at the surface upon activation. APC-SA recognizes superactivated platelets that more readily bind the biotinylated fibrinogen to their surface. Each sample is analyzed by a Beckman Coulter CyAn flow cytometer (Beckman Coulter, Fullerton, CA). Results are analyzed by the Summit program (Beckman Coulter). […] Thus, abnormally high SAP levels are indicative of microvascular disease. […] To evaluate synergistic drug effects, the Combination Index (CI) theorem derived by Chou-Talalay was calculated for each combination product of R, Q, and C. The CI is useful in quantifying levels of synergism and antagonism. The theorem is based on the median-effect equation to provide a common link between a single entity and multiple entities. […] Baseline differences in untreated SAP levels can be adjusted for by evaluating the proportion of total platelets that are sensitive or resistant to treatment (Table 16). This technique adjusts for overall differences in SAP levels between various disease types. […] In AD subjects (n=9), the total number of platelets sensitive to RQC was higher than in healthy controls (n=20). […] The number of sensitive platelets was higher in AD subjects with higher SAP levels while the number of resistant platelets remained largely equivalent.

[3] = biological target: T1, monomeric beta-amyloid 1-42 (Homo sapiens, UniProt P05067); assay: Thioflavin-T (ThT) assay, aggregate-prevention activity; type: biochemical; conditions: for aggregate-prevention activity: curcumin 0.1, 1.0 or 10 μM, resveratrol 10 μM, quercetin 10 μM, 60 minutes; for aggregate-prevention compared with positive control phenol red (PhR): curcumin at 1 μM, resveratrol at 10 μM
T1 construct: 5 ng monomeric beta-amyloid (1-42) (Anaspec, Fremont, CA); purchased Anaspec, Fremont, CA
T1 sequence (P05067 672-713 limits assumed): as above
Text: as §1, §2, §3

[4] = tested on: superactivated platelets (SAPs); assay: SAP inhibition by combinatorial drug treatment (flow cytometry of platelet rich plasma activated with thrombin and convulxin); type: cell-based, human; conditions: 10 μM, 30 minutes at 37° C., normalized relative to Control
Method: A venipuncture sample of 10 mL of blood is obtained from each patient. Of the 10 mL, a 3 mL aliquot of blood is added to a tube containing 0.5 mL of acid-citrate-dextrose solution (38 mM citric acid, 75 mM sodium citrate, 135 mM glucose) to prevent clotting. […] After centrifuging at 1100 rpm for 10 minutes at room temperature, platelet rich plasma (PRP), which is the upper layer, is removed. The PRP is transferred to a new tube, leaving about 0.5 mL above the buffy coat layer. The PRP-containing tube is incubated with 10 μL of thrombin and convulxin, two agonists that activate the platelets, for five minutes. Platelets are then treated with biotinylated fibrinogen and stained with the following fluorophores: APC-streptavidin (APC-SA), FITC-PAC1, and PE-anti-CD41. PE-anti-CD41 recognizes the platelet-specific, transmembrane protein CD41. FITC-PAC1 identifies activated platelets by recognizing […] which increases its expression at the surface upon activation. APC-SA recognizes superactivated platelets that more readily bind the biotinylated fibrinogen to their surface.
All fluorophores are excited at 488 nm by argon laser of the flow cytometer. Their emission spectra are well separated, thereby allowing simultaneous, multi-color immunofluorescence measurements.
Each sample is analyzed by a Beckman Coulter CyAn flow cytometer (Beckman Coulter, Fullerton, CA). Results are analyzed by the Summit program (Beckman Coulter). Data analysis is conducted for SAPs after flow cytometry using the Summit program to determine the relative percentages of each of these groups per sample. The SAPs are expressed as a percentage of the total number of events in the sample.
Isolation and flow cytometry of SAPs was performed according to the procedure described in Example 1, above.
Aliquots of platelet rich plasma (PRP) were incubated with aqueous saline solutions of resveratrol only, quercetin only, […], and with an admixture of resveratrol, quercetin and curcumin for a time period of 30 minutes at 37° C. Thereafter the obtained PRP samples were irradiated by an argon laser at […]. Multi-color immunofluorescence was noted, and analyzed as described in Example 1, above.

## COc1cc(/C=C/C(=O)CC(=O)/C=C/c2ccc(O)c(OC)c2)ccc1O [Curcumin, (1E,6E)-1,7-bis(4-Hydroxy-3-methoxyphenyl)-1,6-heptadiene-3,5-dione]
beta-amyloid fibrils
  IC50: 1 µM
[1]; 0.1 μM
  reduced aggregation of pre-aggregated beta-amyloid (1-42): about 18.6%
[1]; 1.0 μM
  reduced aggregation of pre-aggregated beta-amyloid (1-42): ~51.8%
[1]; 10 μM
  reduced aggregation of pre-aggregated beta-amyloid (1-42): ~64.7%
[1]
  de-aggregation activity (words): de-aggregated beta-amyloid oligomers in a dose-dependent manner at all time points
[1]; listed as curcumin
  de-aggregation activity (words): dose-dependently de-aggregated existing beta-amyloid oligomers
beta-amyloid oligomers
  IC50: 0.8 µM
[2]; C 0.01 μM, AD patient
  % Change: −11%
  SAP %: 32.5%
[2]; C 0.1 μM, AD patient
  % Change: −18%
  SAP %: 30.0%
[2]; C 1 μM, AD patient
  % Change: −37%
  SAP %: 23.2%
[2]; control subject, C 0.01 μM
  % Change: −2%
  SAP %: 36.6%
[2]; control subject, C 0.1 μM
  % Change: −7%
  SAP %: 34.6%
[2]; control subject, C 1 μM
  % Change: −12%
  SAP %: 32.9%
[3]
  aggregate-prevention activity: inhibited the formation of new beta-amyloid aggregates
  aggregate-prevention compared with positive control phenol red (PhR): approximately as effective as the positive control phenol red

## O=c1c(O)c(-c2ccc(O)c(O)c2)oc2cc(O)cc(O)c12 [Quercetin, 3,3′,4′5,7-pentahydroxy-2-phenylchromen-4-one]
[2]; Q 1 μM, AD patient
  % Change: −7%
  SAP %: 34.3%
[2]; Q 5 μM, AD patient
  % Change: −27%
  SAP %: 26.7%
[2]; Q 10 μM, AD patient
  % Change: −44%
  SAP %: 20.6%
[2]; control subject, Q 1 μM
  % Change: −8%
  SAP %: 34.2%
[2]; control subject, Q 5 μM
  % Change: −13%
  SAP %: 32.5%
[2]; control subject, Q 10 μM
  % Change: −23%
  SAP %: 28.6%
In vivo; cited from earlier work
  Half-life: 3 to 17 h
oral, estimation; cited from earlier work
  Bioavailability: 0.2-0.3%
oral; estimation; cited from earlier work
  Bioavailability: 0.2-0.3%
[3]
  aggregate-prevention activity: inhibited the formation of new beta-amyloid aggregates
[4]
  % Reduction in SAPs: 77.8%
  % SAPs: 22.2%

## Oc1ccc(/C=C/c2cc(O)cc(O)c2)cc1 [Resveratrol, 3,5,4′-trihydroxy-trans-stilbene]
[2]; R 1 μM, AD patient
  % Change: −9%
  SAP %: 33.6%
[2]; R 5 μM, AD patient
  % Change: −17%
  SAP %: 30.5%
[2]; R 10 μM, AD patient
  % Change: −19%
  SAP %: 29.9%
[2]; control subject, R 1 μM
  % Change: −9%
  SAP %: 33.9%
[2]; control subject, R 5 μM
  % Change: −24%
  SAP %: 28.2%
[2]; control subject, R 10 μM
  % Change: −29%
  SAP %: 26.3%
[3]
  aggregate-prevention activity: inhibited the formation of new beta-amyloid aggregates
  aggregate-prevention compared with positive control phenol red (PhR): approximately as effective as the positive control phenol red
[4]
  % Reduction in SAPs: 46.6%
  % SAPs: 53.4%
